According to the supplement of paper PMC4862054:
Where “and” joins values, the source holds several entries; their conditions need not be identical. Equal entries are not always repeated.

Key:
MDA-MB-453 [1] = conditions: 72 h
Procedure, shortened: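 Breast cancer cell lines in 20 µl suspension were seeded onto 384-well plates pre-loaded with compound dissolved in 5 µl medium, then incubated 72 h. For viability, 2.5 µl CellTiter-Blue was added for 2 h at 37 °C and fluorescence read at 560/590 nm. Each plate was normalised to vehicle and a positive kill control and checked by Z'-factor. EC50 comes from the fitted percent-inhibition dose-response curve, censored at the highest concentration; rows with zero drug sensitivity score were dropped.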

DU-4475 [2] = test: normalised viability (% of control), CellTiter-Blue; higher = more viable cells (about 100 = DMSO control); conditions: incubation time: 72 h
Method: (§1)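 DSRT, CellTiter-Blue viability, 72 h incubation. Signal is normalised to DMSO and benzethonium chloride controls. Value is the normalised response at dose 9.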

CAL-85-1 [3] = test: as above; conditions: incubation time: 72 h
Method: as §1

MDA-MB-453 [4] = test: as above; conditions: incubation time: 72 h
Method: as §1

CAL-51 [5] = test: as above; conditions: incubation time: 72 h
Method: as §1

CAL-148 [6] = test: as above; conditions: incubation time: 72 h
Method: as §1

HCC1599 [7] = test: drug sensitivity score (DSS), CellTiter-Blue viability (DSS (AUC-based score)); higher = stronger viability inhibition; extreme values may be limits of the assay; conditions: incubation time: 72 h
Method: (§2)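 DSRT with the CellTiter-Blue (resazurin reduction) viability readout, fluorescence 560/590 nm, 72 h incubation. Plates were normalised to DMSO and benzethonium chloride controls. DSS is computed from the area under the fitted dose-response curve (5 or 9 concentrations).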

CAL-120 [8] = test: as above; conditions: incubation time: 72 h
Method: as §2

MDA-MB-436 [9] = test: as above; conditions: incubation time: 72 h
Method: as §2

Hs578T [10] = test: as above; conditions: incubation time: 72 h
Method: as §2

DU-4475 [11] = test: normalised viability (% of control), CellTiter-Blue; higher = more viable cells (about 100 = DMSO control); conditions: incubation time: 72 h; remark: listed apart in the source
Procedure, shortened: (§3)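 Normalised viability is given for a single listed concentration of the series. In 384-well plates, breast cancer cell lines were incubated 72 h with compound, then read with CellTiter-Blue (2 h, 37 °C) at 560/590 nm. Per-plate scaling set vehicle to 100 and a positive kill control to 0, with Z'-factor quality control.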

HCC1937 = test: as above; conditions: incubation time: 72 h
Procedure, shortened: as §3

MDA-MB-468 = test: as above; conditions: incubation time: 72 h
Procedure, shortened: as §3

HCC1599 [12] = test: as above; conditions: incubation time: 72 h
Procedure, shortened: as §3

CAL-85-1 [13] = test: as above; conditions: incubation time: 72 h; remark: listed apart in the source
Procedure, shortened: as §3

MDA-MB-453 [14] = test: as above; conditions: incubation time: 72 h; remark: listed apart in the source
Procedure, shortened: as §3

MDA-MB-231 = test: as above; conditions: incubation time: 72 h
Procedure, shortened: as §3

BT-474 = test: as above; conditions: incubation time: 72 h
Procedure, shortened: as §3

CAL-120 [15] = test: as above; conditions: incubation time: 72 h
Procedure, shortened: as §3

HCC1143 = test: as above; conditions: incubation time: 72 h
Procedure, shortened: as §3

BT-549 = test: as above; conditions: incubation time: 72 h
Procedure, shortened: as §3

SK-BR-3 = test: as above; conditions: incubation time: 72 h
Procedure, shortened: as §3

MDA-MB-436 [16] = test: as above; conditions: incubation time: 72 h
Procedure, shortened: as §3

Hs578T [17] = test: as above; conditions: incubation time: 72 h
Procedure, shortened: as §3

CAL-51 [18] = test: as above; conditions: incubation time: 72 h; remark: listed apart in the source
Procedure, shortened: as §3

CAL-148 [19] = test: as above; conditions: incubation time: 72 h; remark: listed apart in the source
Procedure, shortened: as §3

MFM-223 = test: as above; conditions: incubation time: 72 h
Procedure, shortened: as §3

HDQ-P1 = test: as above; conditions: incubation time: 72 h
Procedure, shortened: as §3

In the case of CC[C@]1(O)C[C@H]2CN(CCc3c([nH]c4ccccc34)[C@@](C(=O)OC)(c3cc4c(cc3OC)N(C=O)[C@H]3[C@@](O)(C(=O)OC)[C@H](OC(C)=O)[C@]5(CC)C=CCN6CC[C@]43[C@@H]65)C2)C1 [Vincristine], the “EC50, CellTiter-Blue viability” value (MDA-MB-453 [1]) was 3.57 nM, the normalised viability (DU-4475 [2]; 1000 nM) was 7.67% and the normalised viability (DU-4475 [2]; 10000 nM) was 8.66%. For the same compound, the normalised viability (CAL-85-1 [3]; 1000 nM) was 47.4%, the normalised viability (CAL-85-1 [3]; 10000 nM) was 39.8% and the normalised viability (MDA-MB-453 [4]; 1000 nM) was 38.5%. For the same compound, the normalised viability (MDA-MB-453 [4]; 10000 nM) was 41.6%, the normalised viability (CAL-51 [5]; 1000 nM) was 11.7% and the normalised viability (CAL-51 [5]; 10000 nM) was 10.7%. For the same compound, the normalised viability (CAL-148 [6]; 1000 nM) was 21.8%, the normalised viability (CAL-148 [6]; 10000 nM) was 28.5% and the drug sensitivity score (HCC1599 [7]) was 6.95 and 15.8. For the same compound, the drug sensitivity score (CAL-120 [8]) was 27.8 and 35.7, the drug sensitivity score (MDA-MB-436 [9]) was 18 and 21 and the drug sensitivity score (Hs578T [10]) was 26.5 and 37.7. It also gave a normalised viability (DU-4475 [11]; 10 nM) of 56%, a normalised viability (DU-4475 [11]; 100 nM) of 19.5% and a normalised viability (HCC1937; 1000 nM) of 13.2%. For the same compound, the normalised viability (HCC1937; 10000 nM) was 16.1%, the normalised viability (MDA-MB-468; 1000 nM) was 41.1% and the normalised viability (MDA-MB-468; 10000 nM) was 38.4%. It also gave a normalised viability (HCC1599 [12]; 1000 nM) of 73.7%, a normalised viability (HCC1599 [12]; 10000 nM) of 45.7% and a normalised viability (CAL-85-1 [13]; 10 nM) of 33.4%. It also gave a normalised viability (CAL-85-1 [13]; 100 nM) of 39.2%, a normalised viability (MDA-MB-453 [14]; 10 nM) of 26.9% and a normalised viability (MDA-MB-453 [14]; 100 nM) of 30.8%. The normalised viability (MDA-MB-231; 1000 nM) was 14.4%, the normalised viability (MDA-MB-231; 10000 nM) was 14.5% and the normalised viability (BT-474; 1000 nM) was 55.9%. The normalised viability (BT-474; 10000 nM) was 47.9%, the normalised viability (CAL-120 [15]; 1000 nM) was 19.9% and the normalised viability (CAL-120 [15]; 10000 nM) was 20.6%. For the same compound, the normalised viability (HCC1143; 1000 nM) was 32.1%, the normalised viability (HCC1143; 10000 nM) was 33.6% and the normalised viability (BT-549; 1000 nM) was 14.6%. It also gave a normalised viability (BT-549; 10000 nM) of 20.2%, a normalised viability (SK-BR-3; 1000 nM) of 16.6% and a normalised viability (SK-BR-3; 10000 nM) of 16.8%. It also gave a normalised viability (MDA-MB-436 [16]; 1000 nM) of 30.2%, a normalised viability (MDA-MB-436 [16]; 10000 nM) of 50.3% and a normalised viability (Hs578T [17]; 1000 nM) of 12.7%. The normalised viability (Hs578T [17]; 10000 nM) was 15.9%, the normalised viability (CAL-51 [18]; 10 nM) was 70.6% and the normalised viability (CAL-51 [18]; 100 nM) was 18%. The normalised viability (CAL-148 [19]; 10 nM) was 21.4%, the normalised viability (CAL-148 [19]; 100 nM) was 20.6% and the normalised viability (MFM-223; 1000 nM) was 27.9%. It also gave a normalised viability (MFM-223; 10000 nM) of 20.5%, a normalised viability (HDQ-P1; 10 nM) of 46.4% and a normalised viability (HDQ-P1; 100 nM) of 43.8%.
With COc1ccc(-c2ccc3c(N4CCOC[C@@H]4C)nc(N4CCOC[C@@H]4C)nc3n2)cc1CO [AZD8055] the “EC50, CellTiter-Blue viability” value (MDA-MB-453 [1]) was 17.1 nM, the normalised viability (DU-4475 [2]; 10000 nM) was 8.6% and the normalised viability (CAL-85-1 [3]; 10000 nM) was 18.8%. The normalised viability (MDA-MB-453 [4]; 10000 nM) was 12.2%, the normalised viability (CAL-51 [5]; 10000 nM) was 6.13% and the normalised viability (CAL-148 [6]; 10000 nM) was 3.64%. It also gave a drug sensitivity score (HCC1599 [7]) of 14.5, a drug sensitivity score (CAL-120 [8]) of 25 and a drug sensitivity score (MDA-MB-436 [9]) of 15.6. It also gave a drug sensitivity score (Hs578T [10]) of 23.6, a normalised viability (DU-4475 [11]; 100 nM) of 58.6% and a normalised viability (HCC1937; 10000 nM) of 40.3%. For the same compound, the normalised viability (MDA-MB-468; 10000 nM) was 21.4%, the normalised viability (HCC1599 [12]; 10000 nM) was 43.4% and the normalised viability (CAL-85-1 [13]; 100 nM) was 46.3%. For the same compound, the normalised viability (MDA-MB-453 [14]; 100 nM) was 21.1%, the normalised viability (MDA-MB-231; 10000 nM) was 22.7% and the normalised viability (BT-474; 10000 nM) was 16.9%. It also gave a normalised viability (CAL-120 [15]; 10000 nM) of 9.25%, a normalised viability (HCC1143; 10000 nM) of 28.4% and a normalised viability (BT-549; 10000 nM) of 14.4%. It also gave a normalised viability (SK-BR-3; 10000 nM) of 10.4%, a normalised viability (MDA-MB-436 [16]; 10000 nM) of 40.1% and a normalised viability (Hs578T [17]; 10000 nM) of 17.6%. For the same compound, the normalised viability (CAL-51 [18]; 100 nM) was 27.3%, the normalised viability (CAL-148 [19]; 100 nM) was 30.4% and the normalised viability (MFM-223; 10000 nM) was 14.6%. It also gave a normalised viability (HDQ-P1; 100 nM) of 45.6%.
